From patent US4918064A, “Phenyl glycines for use in reducing neurotoxic injury” (G. D. Searle & Co., priority 1987, dated 1990) come the findings set out here.

One may read the Ki as a dissociation constant, usually derived from enzyme kinetics or from competition with a known ligand. As usually defined, the IC50 is the concentration needed to halve the response being measured. A high value points to weaker potency in that assay.

Bounds are passed on as bounds.

The target in one assay is NMDA receptor. The assay can be described thus: NMDA-specific L-[3H]glutamate receptor binding assay, synaptic plasma membranes. The following applies: L-[3H]glutamate 12.5 nM, Triton X-100 treated SPM, 0-4° C., 10 min. How it is done:
(§1) Synaptic plasma membranes (SPM) were prepared as previously described [Monahan, J. B. and Michel, J., "Identification and Characterization of an N-methyl-D-aspartate-specific L[^3 H]glutamate Recognition Site in Synaptic Plasma Membranes, J. Neurochem., 48, 1699-1708 (1987)]. The SPM were stored at a concentration of 10-15 mg/ml in 0.32M sucrose, 0.5 mM EDTA, 1 mM MgSO4, 5 mM Tris/SO4, pH 7.4, under liquid nitrogen. The identity and purity of the subcellular fractions were confirmed by both electron microscopy and marker enzymes. Protein concentrations were determined by using a modification of the method of Lowry [Ohnishi, S. T. and Barr, J. K., "A Simplified Method of Quantitating Proteins Using the Biuret and Phenol Reagents", Anal. Biochem., 86, 193-197 (1978)].
Prior to use in the NMDA-specific L-[^3 H]glutamate binding assay the SPM were thawed, diluted twenty fold with 50 mM Tris/acetate, pH 7.4 containing 0.04% (v/v) Triton X-100, incubated for 30 minutes at 37° C. and centrifuged as described above. The Triton X-100 treated membranes were washed with 50 mM Tris/acetate, pH 7.4 and centrifuged at 100,000 g for 15 minutes a total of four times.
(§2) The basic procedure for the receptor subclass binding assays was similar. This general method involved adding the radioligand (12.5 nM L-[^3 H]glutamate; 0.5 nM [^3 H]kainate or 10 nM [^3 H]AMPA) to the appropriate concentration of the test compound and initiating the assay by the addition of ice cold synaptic plasma membranes (0.2-0.45 mg). The binding assays were performed in 1.5 mL centrifuge tubes with the total volume adjusted to 1.0 mL. .Additions of test compounds were made in 50 mM Tris/acetate, pH 7.4 and incubations were carried out at 0°-4° C. The incubation time for the NMDA and the AMPA binding assays was 10 minutes, for the kainate binding assay 60 minutes and for the sodium-dependent glutamate binding assay 15 minutes. The AMPA binding assay contained 100 mM KSCN and the sodium-dependent glutamate binding assay contained 150 mM sodium acetate in addition to the previously described reagents.
(§3) To terminate the incubation, the samples were centrifuged for 15 minutes at 12,000 g and 4° C. in a Beckman Microfuge 12. The supernatant was aspirated and the pelleted membranes dissolved in Beckman BTS-450 tissue solubilizer for a minimum of 6 hours at room temperature. Beckman MP scintillation cocktail containing 7 mL/1 acetic acid was then added and the samples counted on a Beckman LS 5800 or 3801 liquid scintillation counter with automatic corrections for quenching and counting efficiency.
(§4) Nonspecific binding was defined as the residual binding in the presence of either excess L-glutamate (0.1-0.4 mM), kainate (0.01 mM), or NMDA (0.5 mM), and was 15-25% of the total binding in the NMDA binding assay, 19-27% in the AMPA binding assay, 20-30% in the kainate binding assay and 10-15% in the sodium-dependent binding assay. Radioligand binding to the synaptic plasma membranes was analyzed using Scatchard and Hill transformations and the Ki values of the compounds determined using logit-log transformations. Calculations and regression analysis were performed using templates developed for Lotus 1, 2, 3 as previously described [Pullan, L. M. "Automated Radioligand Receptor Binding Analysis with Templates for Lotus", Computer Appln. Biosci., 3 131 (1987)]. Binding results are reported in Table II for example compounds of the invention. […]

The target in another assay is KA (kainate) receptor. Description: [3H]kainate receptor binding assay, synaptic plasma membranes. The following applies: [3H]kainate 0.5 nM, 0-4° C., 60 min. As to the method: as §1
The SPM were treated identically for the [^3 H]AMPA (QUIS), [^3 H]kainate and sodium-dependent L-[^3 H]-glumatate binding assays. The SPM were thawed at room temperature, diluted twenty-fold with 50 mM Tris/acetate, pH 7.4, incubated at 37° C. for 30 minutes, and centrifuged at 100,000 g for 15 minutes. The dilution, incubation, and centrifugation was repeated a total of three times.
as §2, §3, §4

Another assay concerns hippocampal neurons. The assay can be described thus: Glutamate Toxicity Survival Assay, cultured hippocampal neurons (MTT). It is filed as cell-based, Sprague-Dawley rat. As to conditions: 5 μM compound.
The subject of assay [1] is NMDA-induced focal potentials, hippocampal slices. Description: In Vitro Hippocampal Slice Assay (NMDA-induced focal potentials). It is filed as cell-based, Sprague-Dawley albino rat. The following applies: Rattus norvegicus; 100 μM NMDA pressure ejections, recorded in CA1. How it is done: Hippocampal slices were prepared from male, Sprague-Dawley albino rats (100-300 gm) and maintained as described previously [Ganong, A. H., Lanthorn, T. H., Cotman, C. W., "Kynurenic Acid Synaptic and Acidic Amino Acid-Induced Responses in the Rat Hippocampus and Spinal Cord", Brain Research, 273 170-174 (1983)]. The hippocampus was removed in the cold and sliced to a thickness of 450 microns on a McIlwain tissue chopper in experimental medium (124 mM NaCl, 2.5 mM KCl, 1.0 mM KH2 PO4, 26.4 mM NaHCO3, 2 mM CaCl2, 1.5 mM MgSO4, and 10 mM D-glucose) with 10 mM Hepes. The slices were quickly transferred to a static bath and rinsed with experimental medium (without Hepes) and maintained at 34°-35° C. in a humidified chamber with 95% oxygen and 5% carbon dioxide. As needed, slices were transferred from the static bath to a small perfusion chamber where they were secured with an upper net and completely submerged in a continuously flowing experimental medium (2.0 ml/min). The Schaffer collateral/commissural-CAl (S/C-CAl) synaptic response was stimulated (0.05 Hz; 0.01 msec. single duration shock) with bipolar electrodes (Rhodes, Inc.) from stratum radiatum at the CA2-CA3 border. Evoked field EPSPs and drug-induced focal potentials were recorded in the middle portion of CAl. […]

Procedure for hippocampal neurons: Hippocampal neurons were obtained from embryonic day 17 Sprague-Dawley rats. The brains were removed and the hippocampus dissected, placed in ice-cold Leibovitz L-15 medium, carefully stripped of any remaining meninges, and minced into small pieces using scissors. […] Following incubation, the cells were rinsed with 10% serum-containing medium and dissociated by gentle trituration using a reduced bore diameter Pasteur pipet. The cells were plated on a polylysine-coated (0.5 rg/ml, Sigma) 96-well microtiter plates at 30,000 cells/well.
The neuronal survival assay utilized the compound MTT [3-(4,5-dimethylthiazol-2-yl)-2,5-diphenyl tetrazolium bromide], a pale yellow substrate that is cleaved by the mitochondrial enzyme succinate-dehydrogenase to yield a dark blue formazan product. This process requires active mitochondria, present only in live cells. Cultures of hippocampal neurons grown in 96-well plates were incubated with 1 mg/ml MTT at 36° C. in a 10% CO2 -in-air incubator for 30-60 minutes. At the end of the incubation, a dark blue precipitate outlined only viable cells. The precipitate was then solubilized using 0.08N HCl/isopropanol mixture and the absorbance measured with an ELISA plate reader (Dynatech MR600) using a test wavelength of 570 nm and a reference wavelength of 630 nm. The resulting optical density is directly proportional to the number of viable cells.

On to `NC(C(=O)O)c1ccc(CP(=O)(O)O)cc1` (stereo not shown) [Example VI, 4-(Phosphonomethyl)phenylglycine], for which, on NMDA receptor, the Ki turned out to be 3.9 µM. At KA (kainate) receptor, the “Receptor binding, KA (Ki)” value was above 300 µM. In addition, in the assay on hippocampal neurons, the “protection of neurons from glutamate toxicity” value is reported as “Significant protection”. In addition, the IC50 in assay [1] was determined as 4 µM.
